Results from PubChem BioAssay AID1259407 (Chemical Carcinogenesis Research Information System (CCRIS), 2018).
Calls of active or inactive are those of the source. How the calls were made is not given here.

Test system: CCRIS mutagenicity, Ames/micronucleus/aberration tests
Assay: CCRIS mutagenicity studies

ClNc1nc(NCl)nc(NCl)n1
mutagenic call (Test System: AMES SALMONELLA TYPHIMURIUM, Strain/Indicator: TA98, Metabolic Activation: HAMSTER, LIVER, S-9, AROCLOR 1254, Method: STANDARD PLATE): inactive; negative
mutagenic call (Test System: AMES SALMONELLA TYPHIMURIUM, Strain/Indicator: TA98, Metabolic Activation: NONE, Method: STANDARD PLATE): inactive; negative
mutagenic call (Test System: AMES SALMONELLA TYPHIMURIUM, Strain/Indicator: TA98, Metabolic Activation: RAT, LIVER, S-9, AROCLOR 1254, Method: STANDARD PLATE): inactive; negative
mutagenic call (Test System: AMES SALMONELLA TYPHIMURIUM, Strain/Indicator: TA100, Metabolic Activation: HAMSTER, LIVER, S-9, AROCLOR 1254, Method: STANDARD PLATE): inactive; negative
mutagenic call (Test System: AMES SALMONELLA TYPHIMURIUM, Strain/Indicator: TA100, Metabolic Activation: NONE, Method: STANDARD PLATE): inactive; negative
mutagenic call (Test System: AMES SALMONELLA TYPHIMURIUM, Strain/Indicator: TA100, Metabolic Activation: RAT, LIVER, S-9, AROCLOR 1254, Method: STANDARD PLATE): inactive; negative
mutagenic call (Test System: AMES SALMONELLA TYPHIMURIUM, Strain/Indicator: TA1535, Metabolic Activation: HAMSTER, LIVER, S-9, AROCLOR 1254, Method: STANDARD PLATE): inactive; negative
mutagenic call (Test System: AMES SALMONELLA TYPHIMURIUM, Strain/Indicator: TA1535, Metabolic Activation: NONE, Method: STANDARD PLATE): inactive; negative
mutagenic call (Test System: AMES SALMONELLA TYPHIMURIUM, Strain/Indicator: TA1535, Metabolic Activation: RAT, LIVER, S-9, AROCLOR 1254, Method: STANDARD PLATE): inactive; negative
mutagenic call (Test System: AMES SALMONELLA TYPHIMURIUM, Strain/Indicator: TA1537, Metabolic Activation: HAMSTER, LIVER, S-9, AROCLOR 1254, Method: STANDARD PLATE): inactive; negative
mutagenic call (Test System: AMES SALMONELLA TYPHIMURIUM, Strain/Indicator: TA1537, Metabolic Activation: NONE, Method: STANDARD PLATE): inactive; negative
mutagenic call (Test System: AMES SALMONELLA TYPHIMURIUM, Strain/Indicator: TA1537, Metabolic Activation: RAT, LIVER, S-9, AROCLOR 1254, Method: STANDARD PLATE): inactive; negative
mutagenic call (Test System: AMES SALMONELLA TYPHIMURIUM, Strain/Indicator: TA1538, Metabolic Activation: HAMSTER, LIVER, S-9, AROCLOR 1254, Method: STANDARD PLATE): inactive; negative
mutagenic call (Test System: AMES SALMONELLA TYPHIMURIUM, Strain/Indicator: TA1538, Metabolic Activation: NONE, Method: STANDARD PLATE): inactive; negative
mutagenic call (Test System: AMES SALMONELLA TYPHIMURIUM, Strain/Indicator: TA1538, Metabolic Activation: RAT, LIVER, S-9, AROCLOR 1254, Method: STANDARD PLATE): inactive; negative
mutagenic call (Test System: MOUSE LYMPHOMA, Strain/Indicator: L5178Y (TK+/TK-), Metabolic Activation: NONE, Method: SUSPENSION/PLATE): inactive; negative. reevaluation of results: negative
mutagenic call (Test System: Mouse lymphoma, Strain/Indicator: L5178Y (tk+/tk-), Metabolic Activation: Rat, Liver, S-9, Aroclor 1254, Method: Suspension/plate): active; positive
